Laboratory results from patent publication US7361664B2, “Vitamin D receptor antagonists and related compositions and methods of use” (The United States of America as represented by the …, priority 2001, dated 2008).

Legend:
[1] = test system: MCF-7 cells; experiment: [3H]-Thymidine incorporation assay; format: cell-based, human; settings: for effect on MCF-7 cell proliferation ([3H]-thymidine incorporation): 3 days treatment, FIG. 2 and 3
Method: MCF-7 cells (10,000 cells/well) were subcultured in 24 well plates and treated with hormone for 3 days in graded concentrations (FIG. 2). For the last 12 hours, [^3H]-thymidine (0.5 μCi/well) was added to cells. Cells were treated with TCA (20% for 15 minutes, twice with 10% for 3 minutes, and ethanol for 3 minutes). Acid-insoluble material was dissolved in 1 N NaOH, then neutralized with 1 N HCl. Radioactivity was measured by liquid scintillation counting. Data were expressed as radioactivity (% of control). The control was cells treated with vehicle (0.1% ethanol). […] Anti-proliferative effects of BCA11 and calcitriol were additive.

[2] = test system: BT20 cells; experiment: Effect of dietary vitamin D on BT20 tumor growth; format: in vivo, athymic nude mice; settings: for tumor weight: day 69
Method: BT20 cells (estrogen receptor-negative, human breast cancer cells; 5 million) were injected with Matrigel (10 mg/ml) into each flank of 10 weeks old female athymic nude mice. Tumor growth was monitored for six weeks on a low-calcium diet (0.4% Ca, 0.3% P and no vitamin D; Harlan Teklad). Then, mice bearing equal number and size tumors were randomly selected for treatment groups. One group continued on the low-calcium diet (serum 25-OH-D3 approx. 2 pg/ml) and received vehicle and the other group was placed on a normal diet (1.19% Ca, 0.86% P, and 6.6 mg/kg vitamin D; serum 25-OH-D3 approx. 18 pg/ml) and received vehicle.
Six weeks old female athymic mice were placed on diets of 0.5% Ca, 0.3% P, and either no vitamin D (serum 25-OH-D3 approx. 3 pg/ml; serum calcitriol approx. 30 pg/ml) or vitamin D (4 mg/kg (serum 25-OH-D3 approx. 34 pg/ml; serum calcitriol approx. […]) or 40 mg/kg (serum 25-OH-D3 approx. 73 pg/ml; serum calcitriol approx. 70 pg/ml)). Two weeks later, BT20 cells (5 million) were injected with Matrigel (10 mg/ml) into each flank and tumor growth was monitored in the absence of drug treatment.

[3] = test system: MCF-7 cells; experiment: In vivo inhibition of advanced stage tumor growth; parameters: species or system athymic nude mice; settings: 2 mg/kg on alternate days, day 35, estrogen pellets
Method: MCF-7 cells were injected with Matrigel (10 mg/ml) into 7 weeks old female athymic nude mice (10 mice/treatment group). Tumors were grown in the presence of implanted estrogen pellets (0.72 mg pellets). Four weeks after inoculation, mice were treated for 5 weeks with hormones or vehicle (propylene glycol) on alternate days. BCA11 was added at a concentration of 1 μg/kg and Tamoxifen was added at a concentration of 2 mg/kg.

[4] = Serum calcium and toxicity with chronic in vivo administration; parameters: species or system athymic nude mice; settings: 1 μg/kg alternate days, 5 weeks, FIG. 7
Method: MCF-7 cells were injected with Matrigel (10 mg/ml) into 7 weeks old female athymic nude mice. Tumors were grown in the presence of implanted estrogen pellets (0.72 mg pellets). After four weeks inoculation, mice were treated for 5 weeks with hormones or vehicle (propylene glycol) control on alternate days. BCA11 and EB1089 were added at a concentration of 1 μg/kg. Serum was drawn throughout hormone treatment from the orbital vein of the mice and assayed by the Department of Clinic Chemistry, National Institutes of Health, by methods well-known in the art. […] Similar results were obtained from multiple blood samples taken from the phase II study. Calcium and phosphorous levels were assayed by Ani Lytics and fell within normal ranges. In addition, alkaline phosphatase, albumin, bilirubin and creatinine levels were measured in both phases.

[5] = test system: BT20 cells; experiment: Growth of estrogen receptor-negative breast cancer in vivo; parameters: species or system athymic nude mice
Method: BT20 cells (estrogen receptor-negative, human breast cancer cells; 5 million) were injected with Matrigel (10 mg/ml) into each flank of 10 weeks old female athymic nude mice. Mice were maintained on a low-calcium diet (0.4% Ca, 0.3% P and no vitamin D; Harlan Teklad). Then, mice bearing equal number and size tumors were randomly selected for treatment groups. […] Treatment groups received 1.5 μg/kg BCA11 at approximately 21 days after injection of cells. Control groups received vehicle (25% propylene glycol and 75% saline). Drugs or vehicle were injected i.p. three times per week. Tumor growth was monitored biweekly with caliper measurements. […] (Biochem. Pharmacol. (1992)). […] After about four weeks, the mice were divided into treatment and control groups. […] Control groups received vehicle (25% propylene glycol and 75% saline). Drugs or vehicle were injected i.p. three times per week. Tumor growth was monitored biweekly with caliper measurements. Tumor volumes were calculated as indicated in Example 7.

## C=C1/C(=C\C=C2/CCC[C@]3(C)[C@@H]([C@H](C)CCCC(C)(C)O)CC[C@@H]23)C[C@@H](O)C[C@@H]1O [Calcitriol, 1,25-dihydroxycholecalciferol]
[1]; 10 nM of each hormone
  [3H]-Thymidine Incorporation MCF-7 cells (% of Control): 67 ± 8 % of Control
[1]
  effect on MCF-7 cell proliferation ([3H]-thymidine incorporation): stimulate cell growth

## vitamin D
[2]; diet with 4 mg/kg vitamin D, 36 days after injection of BT20 cells
  tumor volume: approximately 12.5 mm^3
[2]; diet with 4 mg/kg vitamin D
  tumor weight: approximately 0.3 g
[2]; diet with 40 mg/kg vitamin D, 36 days after injection of BT20 cells
  tumor volume: approximately 9.5 mm^3
[2]; diet with 40 mg/kg vitamin D
  tumor weight: approximately 0.19 g
[2]; normal diet with 6.6 mg/kg vitamin D, 41 days after inoculation
  tumor volume: approx. 37 mm^3

## C[C@]12CC[C@@H]3c4ccc(O)cc4CC[C@H]3[C@@H]1CC[C@@H]2O [17β Estradiol]
[1]
  effect on MCF-7 cell proliferation ([3H]-thymidine incorporation): stimulate cell growth

## CC/C(=C(\c1ccccc1)c1ccc(OCCN(C)C)cc1)c1ccccc1 [Tamoxifen]
[3]
  inhibition of tumor growth (tumor volume) compared to control: about 50%

## C=C1/C(=C\C=C2/CCC[C@]3(C)[C@@H]([C@H](C)/C=C/C=C/C(O)(CC)CC)CC[C@@H]23)C[C@@H](O)C[C@@H]1O [EB1089]
[4]
  serum calcium levels: fell within the normal range of physiological calcium
[5]; 1.0 μg/kg, day 69
  tumor weight: ~0.07 g
[5]; i.p. three times per week, around 60 days of treatment, 4 mg/kg vitamin D diet
  tumor volume: approximately 14 mm^3
